Test results published in PMC4893161, “The Dynamic Localization of Cytoplasmic Dynein in Neurons Is Driven by Kinesin-1” (Neuron, 2016).

Key:
[1] = system: anterograde transport of dynein-GFP in axons of primary hippocampal neurons; experiment: Slow axonal transport photobleaching assay (dynein-GFP midpoint displacement); assay type: cell-based, mouse; conditions: for mean velocity of dynein-GFP: 500 ng peptide complexed with Chariot reagent, pre-treated 45–60 min; for mean velocity of dynein-GFP / kymographs with no or retrograde bias: n = 27 (control) and 29 (DIC1a) axons; for mean velocity of dynein-GFP / mean velocity of dynein-GFP displacement: 3 cultures
Experimental: Primary hippocampal neurons from dynein-GFP mice were cultured for 8–10 DIV in 900 μm microfluidic devices in order to image single axons of known polarity. Post bleach motility was imaged for 60 s at 0.5 fps. A line scan was made for every frame of the time series, then movement of the photo-protected dynein-GFP pool was quantified by defining retrograde and anterograde edges at the half-maximal fluorescence value and tracking the displacement of the midpoint (Figure 6B). The peak of fluorescence intensity decreased with time as the dynein-GFP pool shifted in both anterograde and retrograde directions. However, the relative midpoint could be seen moving with a clear bias in the anterograde direction for several seconds (Figure 6C), particularly when overlaid onto the more standard kymograph representation of axonal transport (Figure 6D). […] By fitting a linear regression to each relative midpoint position over time, we observed anterograde velocities ranging from 0.01 to 0.1 μm/s. However, ∼80% of events were in the 0.01 to 0.05 μm/s range or approximately 1–5 mm a day. All net anterograde velocities were consistent with known speeds of slow axonal transport of cytoplasmic dynein in vivo ([Dillman et al., 1996a], [Dillman et al., 1996b]).
First, we tested whether the anterograde transport of dynein was microtubule dependent, using nocodazole (final concentration 30 μM) to depolymerize microtubules. Every viable isolated axon (see Experimental Procedures) within the microgrooves of the chamber was imaged following the bleaching protocol described above. The relative position of the midpoint for each kymograph was calculated (see Figure 7A for examples) and the mean midpoint displacement ± SEM was plotted for all axons (Figure 7B). […] To establish a mean velocity for dynein-GFP, we fitted each midpoint shift with a linear regression.
To directly test our hypothesis that interactions between dynein and kinesin-1 are required for the anterograde transport of dynein in the axon, we designed a peptide to block the interaction between DIC1 and KLC. We chose a 19-amino-acid-long sequence centered on the tryptophan in WD1 of DIC1a. […] Hippocampal neuronal cultures were pre-treated for 45–60 min with either DIC1a or control peptide, complexed with Chariot reagent for delivery across the plasma membrane. […] Consequently, the anterograde transport of dynein-GFP in the axon is critically dependent on the interaction between dynein subunit DIC1a and the KLCs of kinesin-1.
Live cell imaging of hippocampal cultures was performed in Hibernate E low fluorescence medium in a humidified temperature controlled (37°C) live cell chamber, on an Ultraview Vox (PerkinElmer) dual-imaging system mounted on an inverted Nikon Ti microscope with either 100× or 60× apochromat 1.49 NA oil-immersion objectives (Nikon), fully controlled by Volocity software (PerkinElmer). FRAP and slow axonal transport imaging used the spinning-disk confocal with an Ultraview Photokinesis unit for bleaching and a C9100-50 EM-CCD (Hamamatsu) camera. Near-TIRF imaging used the Nikon TIRF system with an EM-CCD C9100-13 camera (Hamamatsu). Image analysis was performed in FIJI ([Schindelin et al., 2012]) with follow up analysis in R (RStudio). Specifics for each experiment are listed in the Supplemental Experimental Procedures. […]
Slow axonal transport imaging and drug treatments
Axons were imaged with a 100X objective (Nikon). Acquisition speed was 1 frame every two seconds.
For Nocodazole and Taxol drug treatments, […] and 200 nM respective final concentrations were added
to each well of the microfluidic chamber in imaging media (Hibernate E Low Fluorescence media) 45-60
minutes prior to imaging, with hydrostatic pressure across the microgrooves of the microfluidic device to
ensure drugs reached the axons within the grooves.
Peptides were supplied by GenScript, and sequences are VCFYLLLQTWVFPYTHDLH and
LVQPLHFLTWDTCYFHYLV for Control and DIC1a-WD1 peptides respectively. […]

KLC1TPR = experiment: Fluorescence polarization competition assay with TAMRA-labeled WD1pept; assay type: binding; conditions: 300 nM TAMRA-DICWD1 and 25 µM KLC TPR (approx. 70% saturation), increasing unlabeled peptide, Figure S3D; typically in triplicate
Experimental: Measurements were performed as previously described ([Pernigo et al., 2013]) with modifications as listed in Supplemental Experimental Procedures. […]
Log unlabelled peptide [nM]
Figure S3. Related to Figure 3.
(A-C) Isoforms of the mouse cytoplasmic dynein intermediate chain, based on data from (Kuta et al., 2010). The splice forms of DIC1 (A) and DIC2 (B) from the genes Dync1i1 and Dync1i2 respectively, relative to the longest isoform of each with key structural elements indicated: coiled coil required for NudE and p150 binding (McKenney et al., 2011; Nyarko et al., 2012); binding sites of the dynein light chains Tctex (Mok et al., 2001), LC8 (Lo et al., 2001) and Roadblock (Susalka et al., 2002); WD repeats 1-7 of the WD40 domain. Sequence alignments of all DIC isoforms centred on the two alternatively spliced regions: AS Loop 1 and AS Loop 2 (C). […]
(D) In a fluorescence polarization competition assay, TAMRA-labeled WD1pept bound to KLC1TPR is competed off with both unlabeled SKIPWD (with a single tryptophan motif) or a longer peptide encompassing both motifs (SKIPWDWE). […]
Fluorescence polarization measurements […]
[…] All fluorescence polarization (FP) measurements were carried out on a BMG Labtech PolarStar Omega plate reader at 20 °C by incubating 300 nM TAMRA-labeled peptides with His6-tagged KLC2TPR at increasing concentrations in 25 mM Hepes pH 7.5, 150 mM NaCl, 5 mM β-mercaptoethanol. […]

EB3 comets in the axon = experiment: EB3-mCherry comet density in axons; assay type: cell-based, mouse; conditions: taxol 200 nM, 45-60 min pre-treatment, mean; DMSO control 0.12; p = 0.008
Experimental: Figure S5. Related to Figure 7.
The slow anterograde transport of dynein in the axon is not dependent on dynamic microtubules.
(A) Taxol treatment reduces the density of EB3 comets in the axon. Example kymographs (left) and quantification (right) of
EB3-mCherry comet density in DMSO control and taxol treated axons. Pre-treatment with taxol (200 nM final concentration) for
45-60 minutes prior to imaging reduces the density of EB3 comets in the axon from 0.12 to 0.03 comets/µm/min. Heavy line =
mean, box = sem, grey dots = individual axons. Axons were imaged at 1 frame per second for 3 minutes using live cell spinning
disk confocal microscopy. […]
neurons showing relative positions of anterograde and retrograde intercept (blue) and the calculated midpoint displacement […]
spots are the velocities for each measured kymograph with colour indicating the overall direction of the midpoint displacement. […]
Taxol mean velocity 0.020±0.004 µm/s. p value calculated by a two-sample t-test. […]
Cells were imaged with 60X objective with near-TIRF illumination to eliminate excessive fluorescence […]
every ten minutes, with stage position controlled by Velocity software. For quantification, a threshold was […]
the movie and integrated density of each neurite was measured over time. […]
to each well of the microfluidic chamber in imaging media (Hibernate E Low Fluorescence media) 45-60 […]

[2] = 500 ng peptide with Chariot reagent, mean ± SEM
[3] = 500 ng peptide with Chariot reagent

LVQPLHFLTWDTCYFHYLV [DIC1a peptide]
mean velocity of dynein-GFP ([1]; all kymographs, mean ± SEM): 0.012 ± 0.005 μm/s
anterograde bias of dynein-GFP transport ([1]; 500 ng peptide with Chariot reagent, Figure 7E): substantial reduction in the anterograde bias of dynein-GFP transport
reduction of mean dynein-GFP velocity versus control peptide ([1]; 500 ng peptide with Chariot reagent, all kymographs): over 50%
mean velocity of anterograde only kymographs [1, 2]: 0.029 ± 0.003 μm/s
kymographs with no or retrograde bias [1, 3]: 38%
kymographs showing anterograde velocities over 0.05 μm/s ([1]; 500 ng peptide with Chariot reagent, n = 29 axons): complete loss

STNLEWDDSAIAPSSEDYDFGDVFPAVPSTPR VPSTDWEDGDL [SKIPWDWE, longer SKIP peptide encompassing both motifs]
competition of WD1pept (KLC1TPR): longer and higher affinity SKIPWDWE peptide doing so more efficiently

COC(=O)Nc1nc2ccc(C(=O)c3cccs3)cc2[nH]1 [Nocodazole, nocodazole]
net motility / anterograde bias ([1]; nocodazole, final concentration 30 μM, Figures 7A and 7B): abrogated the anterograde bias in transport seen in DMSO control neurons, with no net motility in either the anterograde or retrograde direction
mean velocity of dynein-GFP displacement ([1]; nocodazole, final concentration 30 μM, linear regression, mean ± SEM, n = 22 axons, DMSO control 0.018 ± 0.005 μm/s): –0.001 ± 0.005 μm/s

STNLEWDDSAI [SKIPWD, unlabeled SKIP peptide with a single tryptophan motif]
competition of WD1pept (KLC1TPR): compete off WD1pept in a concentration dependent manner

VCFYLLLQTWVFPYTHDLH [control peptide]
mean velocity of dynein-GFP ([1]; all kymographs, mean ± SEM): 0.029 ± 0.005 μm/s
mean velocity of anterograde only kymographs [1, 2]: 0.036 ± 0.004 μm/s
kymographs with no or retrograde bias [1, 3]: 15%
kymographs with anterograde velocity over 0.05 μm/s ([1]; 500 ng peptide with Chariot reagent, n = 27 axons (control)): 22%

CC(=O)O[C@H]1C(=O)[C@@]2(C)[C@H]([C@H](OC(=O)c3ccccc3)[C@]3(O)C[C@H](OC(=O)[C@H](O)[C@@H](NC(=O)c4ccccc4)c4ccccc4)C(C)=C1C3(C)C)[C@]1(OC(C)=O)CO[C@@H]1C[C@@H]2O [Taxol, taxol]
mean velocity of dynein-GFP displacement ([1]; taxol 200 nM, 45-60 min pre-treatment, mean ± sem, n = 39 axons, DMSO 0.023±0.005 µm/s, p = 0.6 two-sample t-test): 0.020±0.004 µm/s
inhibition of anterograde bias of dynein transport ([1]; taxol 200 nM, Figures S5B–S5D): no inhibition in the anterograde bias of dynein transport
density of EB3 comets in the axon (EB3 comets in the axon): 0.03 comets/µm/min
